# From US8318815B2, “Method for treatment of tumors using nordihydroguaiaretic acid derivatives” (priority 1999, dated 2012)
# pIC50: −log10 of the molar value. “And” between values parts separate entries of the source, which are not always exact repeats. Equal entries are not always repeated. Marks after values point to notes of the source that are not given here.
# How the values were obtained:
# C3 tumor [1] = test: Histopathology of excised C3 tumors; format: in vivo, mice; settings: hematoxylin and eosin sections
# Experimental: Drug treated (M4N) and DMSO vehicle-treated or untreated tumors (CON) from two groups of mice were prepared for histopathology examination. The excised tumors were immediately fixed and then stored in 4% formaldehyde in phosphate buffered saline. The fixed tissue was then dehydrated through a series of graded alcohols and xylene and embedded in paraffin. The paraffin tissue blocks were thin sectioned and stained for microscopy with hematoxylin and eosin. […] They show the high nuclear/cytoplasmic ratio, pleomorphic nuclear changes, high mitotic figures, spindle like sarcoma shape, and infiltration into the surrounding tissue characteristic of cancer cells.
# [2] = tested on: cellular gene expression in C3 cells; test: 9600 gene array hybridization of C3 cells; format: cell-based, mouse; settings: 72 hrs
# Source text: Gene expression with 9600 gene arrays was studied (FIG. 5). Five micrograms each of poly A^+RNA from 72 hrs. M4N ([…]) treated (C3 M4N) and non-treated (C3 DMSO) was used in a pair of human 9600 gene array hybridization study according to the procedure described in Genomics 51, 313-324 1998. The hybridization image was captured by a color video camera with a Nikon 55 mm AF micro Niko lens and digitized by a Macintosh LC630 computer. Such detection via enzyme substrate reaction of color-forming enzymes in either single or dual-color mode is reproducible and extremely sensitive (can detect <5 copies of transcript per cell with RNAs from 10^7 cells).
# […]. Image files in TIFF format and data files in MS excel format are kept on ZIP diskette. Gene names and clone ID numbers are available for obtaining Image clones for future northern blot confirmation.
# C33a cell line = test: C33a cell growth; format: cell-based, human; settings: three days
# Experimental: (§1) FIG. 9. […] (a-d) C3, CEM-T4, C33a, and TC-1 cells were treated with different concentrations of M4N. The number of cells present at the initiation of the experiment is indicated as Day 0. After three days the number of viable cells were counted and plotted versus the M4N concentration. […] After 3 days, one-half of the M4N treated cells were given fresh media containing only 1% DMSO (M-D), while the rest of the cells were given fresh media with the same conditions (second media change). The cells were counted daily and plotted versus the time of treatment.
# C3 cells [3] = test: Cell cycle DNA content by propidium iodide flow cytometry, C3; settings: C3, 72 hours
# Source text: (§2) The cells were trypsinized, fixed with ethanol, stained with propidium iodide, and were subsequently analyzed by flow cytommetry. […] The indicated stages of the cell cycle are labeled and correspond to the relative cellular DNA compliment as determined by staining intensity.
# CEM-T4 line = test: CEM-T4 cell growth; format: cell-based, human; settings: three days
# Experimental: as §1
# CDC2 mRNA = test: Northern blot of CDC2 mRNA in C3 cells; settings: 40 μM
# caspase-3 = settings: C3 cells, 72 hours
# CEM-T4 cells = test: Cell cycle DNA content by propidium iodide flow cytometry, CEM-T4; settings: CEMT4, 72 hours
# Source text: as §2
# C3 tumor [4] = test: C3 tumor growth in mice, local (intratumoral) injection; format: in vivo
# Experimental: Thirty six C57b1-16 NCR mice were injected with 5×10^5 C3 cells between the shoulders on the backs of the mice. Twenty four of the mice developed tumors within 20 days. […]
# 36 C57b1-16NCR mice were injected with 5×10^5 C3 cells/mouse. Injections were 100 μL made subcutaneously between the shoulders on the backs of the mice. Cells were suspended in low-salt HBSS and suspension uniformity was maintained by gentle vortexing.
# 24 mice developed tumors. Their lesion sizes were measured by dial caliper. These mice were shaved, weight and treatment begun (Day 1). Four were sequestered as controls. Control mice received 50 μl DMSO injected intratumorally daily. […]. Injections were made to several regions of tumor. Mice anesthetized with ether or metaphane prior to injection.
# The treatment regimen and results were as follows: • Day 10: Mice weighed again. […]. The skin at the lesion site of #17 cracked with the “dried-out tumor” showing. It was dissected, and lesion excised and weighed. […]. Remaining control mice (#1, 3, 4) were examined non-invasively and were carrying tumors. • Day 21: Tumor sizes from control mice were measured by dial caliper. […]. […]
# [5] = tested on: HIV LTR promoter (Tat-transactivation); test: Tat-transactivation of HIV promoter activity in Cos cells, SEAP assay; format: cell-based; settings: read-out: IC50 for inhibition of HIV Tat-regulated transactivation
# Source text: As reported previously, methylated NDGA derivatives can block Sp1 binding to the enhancer sites of a variety of viral promoters including HIV, ICP4 of HSV, E6/E7 gene of HPV (8, 9, 10). We further tested the G4N effect on the Tat-transactivation of HIV promoter activity in Cos cells by the SEAP assay as previously described. […] There were 60-fold or more increase in SEAP expression when Cos cells were cotransfected with the CMV promoter driven Tat gene (8). Such Tat-driven ransactivation of the HIV LTR promoter activity was previously shown to be Sp1 regulated (7, 8). In the presence of G4N, we observed inhibition of HIV transactivation in a dose-dependent fashion (FIG. 14). […]. The differences perhaps are due to the chemical nature of the test compounds affecting the drug uptake to the cells.
# E6/E7 mRNA = test: RT-PCR of HPV-16 E6/E7 transcripts in C3 cells; settings: 40 μM
# Experimental: The RTPCR samples were removed after increasing cycles of amplification and resolved on an agarose gel.
# The RT-PCR product was analyzed on a 2% agarose gel.
# C3 cells [6] = tested on: C3 cells
# Experimental: as §1
# HPV-16 transformed immortal mouse epithelial cells (C3 cells) were plated at a density of 10^5 cells per vial.
# The effect on C3 growth following removal of M4N from the medium was also examined. C3 cells were plated at a density of 10^4 cells per vial. […] The other ⅔ of the cell vials were washed and replaced with the same media administered before.
# This hypothesis was tested by examining the antiproliferative effect of M4N on a number of different cell lines.
# [7] = mice carrying multiple tumors, per mouse
# [8] = mice with single tumors, per mouse
compound,measurement,setting,value
"COc1ccc(C[C@@H](C)[C@@H](C)Cc2ccc(OC)c(OC)c2)cc1OC [M4N, tetra-O-methylnordihydroguaiaretic acid]",histopathology of treated tumors,C3 tumor [1],significant necrosis
same,"Cyclin-dependent kinase 7 expression, Treated","[2]; 40 μM, Untreated = 100%",(5%)
same,"Cysteine protease expression, Treated","[2]; 40 μM, Untreated = 100%",(7%)
same,"Human TNF-related Apoptosis AP02 expression, Treated","[2]; 40 μM, Untreated = 100%",(3%)
same,"Human cytokine receptor expression, Treated","[2]; 40 μM, Untreated = 100%",(2%)
same,"Proliferating cell nuclear antigen, PCNA expression, Treated","[2]; 40 μM, Untreated = 100%",(1%)
same,Increase: Apoptosis (APO-1) antigen,"[2]; 40 μm, vs C3 DMSO",(100X)
same,Increase: Cyclin-dependent kinase inhibitor,"[2]; 40 μm, vs C3 DMSO",(100X)
same,Increase: Death Domain Three DR3,"[2]; 40 μm, vs C3 DMSO",(100X)
same,Increase: Human Map Kinase,"[2]; 40 μm, vs C3 DMSO",(40X)
same,Increase: Ras-related protein RAP-1,"[2]; 40 μm, vs C3 DMSO",(60X)
same,growth of C33a cell line,C33a cell line,blocked
same,cells showing G2/M DNA content,C3 cells [3],> 90%
same,growth of CEM-T4 line,CEM-T4 line,blocked
same,amount of CDC2 mRNA,CDC2 mRNA; 24 hours,reduced
same,amount of CDC2 mRNA,CDC2 mRNA; 72 hours,nearly eliminated
same,caspase-3 cleavage,caspase-3,caspase-3 activation
same,cells showing G2/M DNA content,CEM-T4 cells,> 90%
same,body weight changes during the entire experimental period,C3 tumor [4]; Tables 1 and 2,insignificant
same,tumor growth in mice,C3 tumor [4]; daily injection of 50 μl to 100 μl for several days,completely stop tumor growth
same,average weight of treated lesions,"C3 tumor [4]; mice carrying multiple tumors, drug injected into one of the tumors",0.15 g
same,Body wt. Day 1,C3 tumor [4]; [7],17.8 g and 20.2 g and 17.5 g
same,Body wt. Day 24,C3 tumor [4]; [7],20.0 g and 17.9 g and 22.1 g
same,"Wt. Of Excised Lesion, Treated","C3 tumor [4]; mice carrying multiple tumors, drug injected directly to the tumor regions, per mouse",0.11 g and 0.25 g and 0.1 g
same,average weight of excised lesions,"C3 tumor [4]; mice carrying single tumors, control group 1.48 g",0.142 g
same,Body wt. Day 1,C3 tumor [4]; [8],19 g and 18.2 g and 19.5 g and 17 g and 18.9 g and 17.2 g and 17.3 g
same,Body wt. Day 16,C3 tumor [4]; [8],19.2 g and 17.6 g (2×) and 20.0 g
same,Body wt. Day 24,C3 tumor [4]; [8],20.4 g and 20.2 g
same,Wt. Of Excised Lesion Day 16,C3 tumor [4]; [8],0.2 g and 0.4 g and 0.1 g and 0 g
same,Wt. Of Excised Lesion Day 24,C3 tumor [4]; [8],0.1 g and 0 g
same,"Wt. Of Excised Lesion, taken on Day 15","C3 tumor [4]; mouse 17, single tumor",0.2** g
same,pIC50,[5],4.96
same,levels of the E7 transcript,"E6/E7 mRNA; 5 to 72 hours, rtPCR",clear reduction
same,amplified E7 (321 bp) and E6 (204 bp) RT-PCR products,"E6/E7 mRNA; 71 hours, following 30 cycles of amplification",barely detectable
same,rate of cell growth following the change to drug-free media,"C3 cells [6]; 40 μM for 73 hours, then media with 1% DMSO only",not notably increased
same,fraction of viable cells compared to the total cell count,C3 cells [6]; 40 μM in 1% DMSO,remained constant
same,growth and division of C3 cells,"C3 cells [6]; 40 μM in 1% DMSO, versus DMSO only control",markedly reduced
same,"""threshold"" concentration above which the percentage of viable cells decreases precipitously",C3 cells [6]; C3 cells,60 µM
same,cell death after prolonged exposure,"C3 cells [6]; C3 cells, eight days, 40 μM",no increase in cell death
same,viable fraction of arrested cells,"C3 cells [6]; the four cell lines treated (C3, CEM-T4, C33a, TC-1), up to the threshold concentration",> 95%
